# Like-named read-outs stand apart in the source and are kept apart here. Starred links: 1 amine or outer side, 2 acyl side, 3 side chain; linkers in the order of their positions; H or OH if unused. Positions of bridges follow the written chain, without caps; N, C: chain ends. Non-standard residues stand in square brackets, D forms with d. Residues, ends and D or L forms follow the SMILES beside them. *: point of attachment. hTyr(3S-OH,4S-OH,3'-OSO3H) = N[C@H](C(=O)O)[C@H](O)[C@@H](O)c1ccc(O)c(OS(=O)(=O)O)c1; Orn(4R-OH,5R-OH) = O=C([C@H](C[C@@H](O)[C@@H](O)N[*:3])N[*:1])[*:2]; Pro(3S-OH,4S-Me) = C[C@H]1CN[C@H](C(=O)O)[C@H]1O; X1 = CCCCCOc1ccc(-c2cc(-c3ccc(C(=O)*)cc3)no2)cc1; Gln(3R-OH) = NC(=O)C[C@@H](O)[C@H](N)C(=O)O; Hyp = O=C(O)[C@@H]1C[C@@H](O)CN1
# Key:
# [1] = test system: Phakopspora pachyrhizi SDM Y131F I475T isolates; parameters: method as in PMID 23589453; conditions: isolates from soybean plants in Brazil; cited from earlier work
# [2] = test system: S. cerevisiae strain AD2Δ (native wild-type ScLDM); experiment: Broth microdilution drug susceptibility assay (MIC80), host strain AD2Δ; type: cell-based; conditions: Saccharomyces cerevisiae, 48 h, pH 6.8
# Experimental: Yeast strains used in this study (Supplementary Table S1) were prepared using the AD2Δ strain of S. cerevisiae as a host, using an established protocol. AD2Δ is hypersensitive to xenobiotics due to the deletion of seven major ABC transporters, including those responsible for the efflux of azole drugs. It is also deleted of the PDR3 transcriptional regulator, but contains the gain-of-function Pdr1-3 transcriptional regulator mutation that leads to constitutive overexpression from the PDR5 locus.
# (§1) Azole susceptibility was measured as the mean drug concentration required to inhibit 80% of yeast growth (MIC80) compared to a non-drug control, using a standard broth microdilution assay. Serial dilutions of short- (FLC and VCZ), medium- (VT-1161), and long-tailed (ITC and PCZ) azole drugs, and the control drugs micafungin (MCF) and amphotericin B (AMB), were prepared in a 96-well microtiter plate in complete synthetic media lacking uracil, buffered to pH 6.8 [34]. Control and test cells were seeded at an optical density of 600 nm (OD600) of 0.005 (~1.5 × 10^4 colony forming units). After incubation for 48 h at 30 °C with constant agitation (200 rpm), the OD600 nm of each well was measured using a Synergy 2 multi-mode plate reader (BioTek Instruments, Winooski, VT, USA). The experiment was repeated three times (a total of nine measurements for the response of each strain to each drug). GraphPad Prism 5.0 software was used for statistical analysis, using a one-way analysis of variance with a Bonferroni post-hoc test. The statistical significance of comparisons was accepted when p < 0.05.
# [3] = test system: S. cerevisiae strain AD3Δ ScErg11 (AD3Δ) overexpressing wild-type ScLDM6×His; experiment: Broth microdilution drug susceptibility assay (MIC80), strain AD3Δ ScErg11; type: cell-based, Saccharomyces cerevisiae; conditions: for MIC80: Saccharomyces cerevisiae, 48 h, pH 6.8; for effect of ScLDM6×His overexpression on susceptibility to control antifungals: strain AD3Δ vs AD2Δ
# Experimental: (§2) The native ScERG11 gene in yeast cells containing mutant ScERG11-6×His constructs in the PDR5 locus was disrupted by homologous recombination with a cassette encoding the His1 selection marker and sequences homologous with the regions bordering the endogenous ScERG11 ORF to create strains AD3Δ ScErg11 Y140H, AD3Δ ScErg11 I471T and AD3Δ ScErg11Y140H I471T [43]. Transformants were selected on SD-His agar plates incubated at 30 °C for 48–72 h. Genomic DNA was extracted, and DNA sequencing as above was used to confirm deletion of the native ERG11. Strain AD3Δ ScErg11 (denoted as AD3Δ), which overexpresses wild-type ScLDM6×His from the PDR5 locus and has the native ScERG11 gene disrupted, was used as a control strain [43].
# as §1
# [4] = test system: S. cerevisiae strain AD3Δ ScErg11 Y140H expressing ScLDM6×His Y140H; experiment: Broth microdilution drug susceptibility assay (MIC80), strain AD3Δ ScErg11 Y140H; type: cell-based, Saccharomyces cerevisiae; conditions: for MIC80: Saccharomyces cerevisiae, 48 h, 30 °C, pH 6.8, mean (± SEM), n = 3
# Experimental: as §2, §1
# [5] = test system: S. cerevisiae strain AD3Δ ScErg11 I471T expressing ScLDM6×His I471T; experiment: Broth microdilution drug susceptibility assay (MIC80), strain AD3Δ ScErg11 I471T; type: cell-based, Saccharomyces cerevisiae; conditions: for MIC80: Saccharomyces cerevisiae, 48 h, 30 °C, pH 6.8, mean (± SEM), n = 3; for increased susceptibility compared with AD3Δ: strain AD3Δ ScErg11 I471T, not corrected for expression
# Experimental: as §2, §1
# [6] = test system: S. cerevisiae strain AD3Δ ScErg11 Y140H I471T expressing ScLDM6×His Y140H I471T; experiment: Broth microdilution drug susceptibility assay (MIC80), strain AD3Δ ScErg11 Y140H I471T; type: cell-based, Saccharomyces cerevisiae
# Experimental: as §2, §1
# [7] = test system: S. cerevisiae test and control strains (AD2Δ, AD3Δ and mutants); experiment: Broth microdilution MIC80, comparison across the various cell types tested; type: cell-based, Saccharomyces cerevisiae; conditions: p > 0.05
# Experimental: as §1
# [8] = test system: C. albicans Darlington strain; experiment: Agarose disk diffusion assay, Darlington strain; type: cell-based, Candida albicans; conditions: for agarose diffusion susceptibility: no efflux pump inhibitor
# Experimental: (§3) Agarose diffusion assays were carried out as described previously using the Darlington strain of C. albicans (Pfizer Ltd., Sandwich, UK) and the control C. albicans database strain SC5314, which is not resistant to azoles. The Cdr1p-specific inhibitor RC21v3 and the CaMdr1p-specific inhibitor MCC1189 (MicroCombiChem, Wiesbaden, Germany), included in the assay medium at 6 µM, were used to investigate the contribution of efflux pumps to azole resistance in the Darlington strain [49, 50, 51].
# [9] = test system: C. albicans strain SC5314; experiment: Agarose disk diffusion assay, control strain SC5314; type: cell-based, Candida albicans
# Experimental: as §3
# [10] = molecular target: wild-type and Y140F/H mutants of ScLDM6×His; parameters: method as in earlier work; conditions: no significant differences, ref 5 (supplement; Sagatova et al. 2016); cited from earlier work
# [11] = strain AD2Δ, 30 °C, mean (± SEM), n = 3, read-out: MIC80
# [12] = strain AD3Δ, 30 °C, mean (± SEM), n = 3, read-out: MIC80
# [13] = Saccharomyces cerevisiae, strain Y140H + I471T, 48 h, 30 °C, pH 6.8, mean (± SEM), n = 3
# [14] = strain Y140H, relative expression 0.74
# [15] = strain I471T, relative expression 0.51
# [16] = strain Y140H+I471T, relative expression 0.41
Structure (SMILES),"MIC80 [2, 11]","MIC80 [3, 12]",effect of ScLDM6×His overexpression on susceptibility to control antifungals [3],MIC80 ([4]; strain Y140H),MIC80 ([5]; strain I471T),increased susceptibility compared with AD3Δ [5],"MIC80 [6, 13]",differences between MIC80s for the various cell types tested [7],agarose diffusion susceptibility [8],further results
Fc1ccc([C@]2(Cn3cncn3)O[C@H]2c2ccccc2Cl)cc1 (racemic) [epoxiconazole],,,,,,,,,,resistance conferred by the double mutation Y131F I475T [1]: ~ 100 fold
"C[C@@H]1[C@H](O)[C@@H](C)/C=C/C=C/C=C/C=C/C=C/C=C/C=C/[C@H](O[C@@H]2O[C@H](C)[C@@H](O)[C@H](N)[C@@H]2O)C[C@@H]2O[C@](O)(C[C@@H](O)C[C@@H](O)[C@H](O)CC[C@@H](O)C[C@@H](O)CC(=O)O[C@H]1C)C[C@H](O)[C@H]2C(=O)O [AMB, amphotericin B]",2.18 µM,2.34 µM,did not modify susceptibility,2.19 µM,2.26 µM,not,2.14 µM,no statistically significant differences,mild resistance,
"OC(Cn1cncn1)(Cn1cncn1)c1ccc(F)cc1F [FLC, fluconazole]",,,,7.4 µM,1.88 µM,1.9 fold,11.5 µM,,resistant,"MIC80 [2]: 1.33 µM; MIC80/Relative Amount of ScLDM6×His [3]: 3.64 µM; MIC80 [3]: 3.64 µM; resistance conferred, relative amount of recombinant ScLDM6×His taken into account ([4]; ScLDM6×His Y140H vs AD3Δ): 2.8 fold; MIC80 higher than strain AD3Δ ScErg11 ([4]; strain AD3Δ ScErg11 Y140H vs AD3Δ, not corrected for expression, p < 0.001): ~ 2 fold; MIC80/Relative Amount of ScLDM6×His [4, 14]: 10 µM; fold-resistance based on the relative amount of recombinant enzyme compared with strain AD3Δ [4, 14]: 2.8 ×; MIC80/Relative Amount of ScLDM6×His [5, 15]: 3.69 µM; fold-resistance based on the relative amount of recombinant enzyme compared with strain AD3Δ [5, 15]: 1.0 ×; MIC80 higher than AD3Δ ScErg11 cells ([6]; strain AD3Δ ScErg11 Y140H I471T, not corrected for expression, p < 0.001): approximately 3 fold; MIC80 higher than cells overexpressing ScLDM6×His Y140H ([6]; strain AD3Δ ScErg11 Y140H I471T, p < 0.001): 1.5 fold; MIC80/Relative Amount of ScLDM6×His [6, 16]: 28.0 µM; fold-resistance based on the relative amount of recombinant enzyme compared with strain AD3Δ [6, 16]: 7.7 ×; effect of Cdr1p inhibitor RC21v3 on azole susceptibility [9]: did not alter the susceptibility; effect of Mdr1 inhibitor MCC1189 on azole susceptibility [9]: did not alter the susceptibility; agarose diffusion susceptibility ([9]; SC5314, no efflux pump inhibitor): susceptible; effect of Mdr1 inhibitor MCC1189 on azole susceptibility ([8]; MCC1189 at 6 µM in the assay medium): did not alter the susceptibility; effect of Cdr1p inhibitor RC21v3 on azole susceptibility ([8]; RC21v3 at 6 µM in the assay medium): did not alter the susceptibility; Kd [10]: ~500 nM"
"CCCCCOc1ccc(-c2cc(-c3ccc(C(=O)N[C@H]4C[C@@H](O)[C@@H](O)NC(=O)[C@@H]5[C@@H](O)[C@@H](C)CN5C(=O)[C@H]([C@H](O)CC(N)=O)NC(=O)[C@H]([C@H](O)[C@@H](O)c5ccc(O)c(OS(=O)(=O)O)c5)NC(=O)[C@@H]5C[C@@H](O)CN5C(=O)[C@H]([C@@H](C)O)NC4=O)cc3)no2)cc1 [MCF, micafungin] (X1-[Orn(4R-OH,5R-OH)]T[Hyp][hTyr(3S-OH,4S-OH,3'-OSO3H)][Gln(3R-OH)][Pro(3S-OH,4S-Me)]; lactam 1-C)",0.174 µM,0.146 µM,did not modify susceptibility,0.166 µM,0.164 µM,not,,no statistically significant differences,,"MIC [6, 13]: 0.162 µM"

# From publication PMC8621857, “Structural Insights into the Azole Resistance of the Candida albicans Darlington Strain Using Saccharomyces cerevisiae Lanosterol 14α-Demethylase as a Surrogate” (Journal of Fungi, 2021)
